Measurements from PMC12627627 (Nature Communications, 2025).
Numbering of substitutions follows the chain as printed. Values joined by “and” are separate entries in the source; they are usually repeats but may differ in a detail not shown here. Equal values may be shown once.

How the values were obtained:
R12 domain of RyR1 = target: T1, R12 domain of RyR1 (Homo sapiens, UniProt P21817); assay: ITC, R12 domain of RyR1; type: binding
T1 construct: RyR1 854–1054, RyR2 865–1065, RyR3 853–1053; made in house; host or cells: E. coli BL21 (DE3)
T1 sequence (P21817 854-1054): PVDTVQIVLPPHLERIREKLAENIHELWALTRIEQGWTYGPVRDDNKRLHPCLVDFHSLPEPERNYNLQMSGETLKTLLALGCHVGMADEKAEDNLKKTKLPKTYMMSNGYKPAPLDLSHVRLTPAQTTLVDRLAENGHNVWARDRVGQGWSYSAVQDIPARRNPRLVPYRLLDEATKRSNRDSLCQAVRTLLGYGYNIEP
Protocol: (§1) The plasmids were subsequently transformed into E. coli BL21 (DE3) cells (NEB, USA) and cultured in Luria-Bertani (LB) media at 37 °C. Protein expression was induced with 0.4 mM isopropyl β-D-thiogalactoside (IPTG) when the optical density (OD)600 reached ~0.8, followed by incubation at 18 °C for 12 h. The cells were harvested via centrifugation at 5,000 × g for 15 min at 4 °C and homogenized in Buffer A (10 mM HEPES, pH 7.4, 250 mM KCl) supplemented with 25 µg/mL DNaseI, 25 µg/mL lysozyme, 1 mM phenylmethylsulfonyl fluoride (PMSF), and 20 mM imidazole. The homogenate was centrifuged at 12,000 × g for 45 min, and the supernatant was filtered through a syringe filter (0.22 µm).
(§2) Purified R12 domain protein from the three RyR isoforms, fused with hexahistidine-tagged MBP (HMT-R12) was dialyzed overnight at 4 °C in ITC buffer (200 mM HEPES, pH 7.4, 150 mM KCl). ITC experiments were performed using a PEAQ-ITC instrument (Malvern, UK) at 25 °C with a stirring speed of 750 rpm. […] For the ternary binding experiments, 500 μM or 5 mM AMP-PCP/ADP was preincubated with both the titrants and titrates. […] The data was fit to a one-site fitting model after background buffer subtraction. The RyR1 R12 mutants were generated using a QuikChange mutagenesis kit (Stratagene) according to the manufacturer’s protocol, with primer sequences listed in Supplementary Table 3.

R12 domain of RyR2 = target: T2, R12 domain of RyR2 (Homo sapiens, UniProt Q92736); assay: ITC, R12 domain of RyR2; type: binding; conditions: absence or presence of AMP-PCP or ADP
T2 construct: RyR1 854–1054, RyR2 865–1065, RyR3 853–1053; made in house; host or cells: E. coli BL21 (DE3)
T2 sequence (Q92736 865-1065): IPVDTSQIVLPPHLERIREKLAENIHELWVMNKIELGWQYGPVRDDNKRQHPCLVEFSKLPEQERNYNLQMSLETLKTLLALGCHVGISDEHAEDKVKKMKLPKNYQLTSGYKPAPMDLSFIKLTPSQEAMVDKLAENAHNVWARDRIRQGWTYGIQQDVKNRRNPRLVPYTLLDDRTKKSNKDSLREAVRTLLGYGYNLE
Protocol: as §1, §2

RyR1 R2163C = target: T3, RyR1 R2163C (Oryctolagus cuniculus, UniProt P11716, R2163C); assay: Time-lapse [Ca2+]ER measurement, HEK293 cells expressing RyR1 R2163C; type: cell-based; conditions: for IC50: HEK293 cells stably expressing RyR1 R2163C, ER Ca2+ fluorescence, dose-dependent
T3 construct: expressed in transfected cells
Protocol: HEK293 cells stably expressing R-CEPIA1er and RyRs (WT RyR1, RyR1-W881A, RyR1-W995A, RyR1-R2163C, and WT RyR2)[26],[27] were used in this study. Briefly, the cells were seeded at a density of 2 × 10⁴ cells/well in a 96-well black, clear-bottom plate (Corning). Doxycycline (2 µg/mL) was added 12 h after seeding, and the medium was replaced 24 h later with HEPES-buffered Krebs solution (5 mM HEPES, pH 7.4; 140 mM NaCl; 5 mM KCl; 2 mM CaCl₂; 1 mM MgCl₂; and 11 mM glucose). Fluorescence measurements were conducted using a FlexStation 3 fluorometer (Molecular Devices) at 37 °C. The R-CEPIA1er was excited at 560 nm, emitted at 610 nm, and captured every 10 seconds over 300 seconds. […] The fluorescence changes (F/F₀) were calculated by dividing the average fluorescence of the last 100 seconds (F) by that of the first 100 seconds (F₀). All measurements were performed in triplicate.

RyR1-W881A R12 = target: T4, RyR1-W881A R12 (Homo sapiens, UniProt P21817, W881A); assay: ITC, RyR1 R12 W881A; type: binding; conditions: RyR1-W881A R12, no nucleotide
T4 construct: RyR1 854–1054, RyR2 865–1065, RyR3 853–1053; made in house; host or cells: E. coli BL21 (DE3)
T4 sequence (P21817 854-1054 W881A): T1 sequence (P21817 854-1054) with W28A
Protocol: as §1, §2

[1] = RyR1 R12, no nucleotide, ITC 25 °C

| SMILES | Kd (R12 domain of RyR1; RyR1 R12 + 500 µM ADP) [µM] | No of Sites (N) (R12 domain of RyR1; RyR1 R12 + 500 µM ADP) | ΔH (R12 domain of RyR1; RyR1 R12 + 500 µM ADP) [kcal/mol] | −TΔS (R12 domain of RyR1; RyR1 R12 + 500 µM ADP) [kcal/mol] | No of Sites (N) (R12 domain of RyR1; RyR1 R12 + 500 µM AMP-PCP) | ΔH (R12 domain of RyR1; RyR1 R12 + 500 µM AMP-PCP) [kcal/mol] | −TΔS (R12 domain of RyR1; RyR1 R12 + 500 µM AMP-PCP) [kcal/mol] | Kd (R12 domain of RyR1; RyR1 R12 + 5 mM ADP) [µM] | No of Sites (N) (R12 domain of RyR1; RyR1 R12 + 5 mM ADP) | ΔH (R12 domain of RyR1; RyR1 R12 + 5 mM ADP) [kcal/mol] | −TΔS (R12 domain of RyR1; RyR1 R12 + 5 mM ADP) [kcal/mol] | Kd (R12 domain of RyR1; RyR1 R12 + 5 mM AMP-PCP) [µM] | No of Sites (N) (R12 domain of RyR1; RyR1 R12 + 5 mM AMP-PCP) | ΔH (R12 domain of RyR1; RyR1 R12 + 5 mM AMP-PCP) [kcal/mol] | −TΔS (R12 domain of RyR1; RyR1 R12 + 5 mM AMP-PCP) [kcal/mol] | No of Sites (N) (R12 domain of RyR1; RyR1 R12, no nucleotide) | ΔH (R12 domain of RyR1; RyR1 R12, no nucleotide) [kcal/mol] | −TΔS (R12 domain of RyR1; RyR1 R12, no nucleotide) [kcal/mol] | Kd (R12 domain of RyR1; [1]) | binding to RyR2 R12 domain by ITC (R12 domain of RyR2) | other results |
| --- | --- | --- | --- | --- | --- | --- | --- | --- | --- | --- | --- | --- | --- | --- | --- | --- | --- | --- | --- | --- | --- |
| O=C1CN(/N=C/c2ncc(-c3ccc(Br)cc3)o2)C(=O)N1 [AZU, Azumolene] | 0.241 ± 0.031 | 0.652 ± 0.16 | -7.92 ± 0.91 | -1.11 | 0.904 ± 0.52 | -2.99 ± 0.47 | -6.48 | 0.06 ± 0.012 | 0.489 ± 0.28 | -8.45 ± 0.94 | -1.40 | 0.046 ± 0.014 | 0.718 ± 0.50 | -7.75 ± 0.12 | -2.26 | 0.810 ± 0.21 | -80 | 75.60 | 595 µM and 596 µM | neither DAN nor AZU exhibited detectable binding | ER luminal [Ca2+] change (F/F0) (RyR1 R2163C; Fig. 1B source data, concentration 0.001 (unit not given), single replicates): 0.9854 and 0.9883 and 0.9973; ER luminal [Ca2+] change (F/F0) (RyR1 R2163C; Fig. 1B source data, concentration 0.01 (unit not given), single replicates): 0.9658 and 0.9819 and 0.982; ER luminal [Ca2+] change (F/F0) (RyR1 R2163C; Fig. 1B source data, concentration 0.05 (unit not given), single replicates): 1.099 and 1.026 and 0.9992; ER luminal [Ca2+] change (F/F0) (RyR1 R2163C; Fig. 1B source data, concentration 0.1 (unit not given), single replicates): 1.103 and 1.117 and 1.012; ER luminal [Ca2+] change (F/F0) (RyR1 R2163C; Fig. 1B source data, concentration 0.5 (unit not given), single replicates): 1.22 and 1.241 and 1.23; ER luminal [Ca2+] change (F/F0) (RyR1 R2163C; Fig. 1B source data, concentration 1 (unit not given), single replicates): 1.3399 and 1.372 and 1.356; ER luminal [Ca2+] change (F/F0) (RyR1 R2163C; Fig. 1B source data, concentration 5 (unit not given), single replicates): 1.6271 and 1.651 and 1.748; ER luminal [Ca2+] change (F/F0) (RyR1 R2163C; Fig. 1B source data, concentration 10 (unit not given), single replicates): 1.557 and 1.7194 and 1.724; ER luminal [Ca2+] change (F/F0) (RyR1 R2163C; Fig. 1B source data, concentration 50 (unit not given), single replicates): 1.618 and 1.707 and 1.756; ER luminal [Ca2+] change (F/F0) (RyR1 R2163C; Fig. 1B source data, concentration 100 (unit not given), single replicates): 1.541 and 1.665 and 1.689; IC50 (RyR1 R2163C): 0.41 µM; Kd (RyR1-W881A R12): 358 ± 138 µM; No of Sites (N) (RyR1-W881A R12): 1.04 ± 0.35; ΔH (RyR1-W881A R12): -35.60 kcal/mol; −TΔS (RyR1-W881A R12): 30.90 kcal/mol |
| O=C(C[C@@H](NCCCO)C(=O)O)Nc1ccc2ccccc2c1 [RI-2] | 49.1 ± 50.1 | 0.605 ± 0.21 | -3.08 ± 0.20 | -4.30 | 0.721 ± 0.12 | -5.47 ± 0.17 | -2.39 | 3.86 ± 0.975 | 0.912 ± 0.43 | -15.09 ± 11.60 | 10.1 | 0.56 ± 0.17 | 0.547 ± 0.43 | -7.05 ± 0.69 | -0.11 | 0.519 ± 0.25 | -5.61 ± 0.73 | 0.944 | 159 µM and 158 µM | no detectable binding | Kd (R12 domain of RyR1; RyR1 R12 + 500 µM AMP-PCP): 1.75 ± 0.29 µM; [Ca2+]ER change (F/F0) (RyR1 R2163C; 100 µM compound, compared with 2.5% DMSO, Fig. S10 source data, single replicates): 1.393 and 1.514 and 1.475; ER luminal [Ca2+] change (F/F0) (RyR1 R2163C; Fig. 5D source data, RyR1-R2163C, RI-2 0.1 uM, single replicates): 0.9503 and 1.0903 and 0.9717; ER luminal [Ca2+] change (F/F0) (RyR1 R2163C; Fig. 5D source data, RyR1-R2163C, RI-2 0.5 uM, single replicates): 0.9981 and 0.9736 and 1.043; ER luminal [Ca2+] change (F/F0) (RyR1 R2163C; Fig. 5D source data, RyR1-R2163C, RI-2 1 uM, single replicates): 1.073 and 0.9956 and 0.9903; ER luminal [Ca2+] change (F/F0) (RyR1 R2163C; Fig. 5D source data, RyR1-R2163C, RI-2 5 uM, single replicates): 1.035 and 0.9806 and 0.9738; ER luminal [Ca2+] change (F/F0) (RyR1 R2163C; Fig. 5D source data, RyR1-R2163C, RI-2 10 uM, single replicates): 1.082 and 1.203 and 1.117; ER luminal [Ca2+] change (F/F0) (RyR1 R2163C; Fig. 5D source data, RyR1-R2163C, RI-2 25 uM, single replicates): 1.365 and 1.221 and 1.3399; ER luminal [Ca2+] change (F/F0) (RyR1 R2163C; Fig. 5D source data, RyR1-R2163C, RI-2 50 uM, single replicates): 1.514 and 1.709 and 1.462; ER luminal [Ca2+] change (F/F0) (RyR1 R2163C; Fig. 5D source data, RyR1-R2163C, RI-2 75 uM, single replicates): 1.641 and 1.709 and 1.614; ER luminal [Ca2+] change (F/F0) (RyR1 R2163C; Fig. 5D source data, RyR1-R2163C, RI-2 100 uM, single replicates): 1.752 and 1.723 and 1.637; IC50 (RyR1 R2163C): 28 µM; Kd (RyR1-W881A R12): 292 ± 22.5 µM; No of Sites (N) (RyR1-W881A R12): 0.94 ± 0.46; ΔH (RyR1-W881A R12): -10.7 ± 3.83 kcal/mol; −TΔS (RyR1-W881A R12): 4.71 kcal/mol |
